The text below walks through data of patent publication US11999727B2 (Tango Therapeutics, Inc., priority 2020, dated 2024).

In assay [1] the test system is HAP1 MTAP-deleted cell line. Description: Viability assay, MTAP-deleted cell line. The assay is classed as cell-based. Conditions: Homo sapiens, HAP1, viability IC50, MTAP-deleted cell line; read-out: HAP1 MTAP deleted viability. The source says:
Table 1 additionally indicates IC50 values in a viability assay for the MTAP-deleted cell line (column 10), indicating the effect of treatment with compound on cell survival.

The target in assay [2] is T1, PRMT5 (Homo sapiens, UniProt O14744).
T1 construct: purchased Viva (custom protein)
T1 sequence (O14744 whole entry): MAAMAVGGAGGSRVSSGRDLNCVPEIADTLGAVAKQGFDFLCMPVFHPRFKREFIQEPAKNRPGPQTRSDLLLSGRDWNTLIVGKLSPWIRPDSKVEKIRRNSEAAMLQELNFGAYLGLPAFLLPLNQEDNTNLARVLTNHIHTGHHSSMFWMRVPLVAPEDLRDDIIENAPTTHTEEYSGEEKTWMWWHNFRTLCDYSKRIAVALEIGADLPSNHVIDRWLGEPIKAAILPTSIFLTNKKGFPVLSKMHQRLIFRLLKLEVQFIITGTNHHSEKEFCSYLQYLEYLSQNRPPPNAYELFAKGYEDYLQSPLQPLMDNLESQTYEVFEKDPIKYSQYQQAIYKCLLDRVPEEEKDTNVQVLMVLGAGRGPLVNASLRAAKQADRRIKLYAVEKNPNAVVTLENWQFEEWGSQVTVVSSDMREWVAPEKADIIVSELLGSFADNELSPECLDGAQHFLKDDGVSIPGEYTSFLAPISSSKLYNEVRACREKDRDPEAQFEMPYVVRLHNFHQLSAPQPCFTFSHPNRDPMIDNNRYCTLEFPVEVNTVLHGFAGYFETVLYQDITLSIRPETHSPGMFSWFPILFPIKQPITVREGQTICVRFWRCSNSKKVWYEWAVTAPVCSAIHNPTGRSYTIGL
T1 sequence (Q9BQA1 whole entry partner): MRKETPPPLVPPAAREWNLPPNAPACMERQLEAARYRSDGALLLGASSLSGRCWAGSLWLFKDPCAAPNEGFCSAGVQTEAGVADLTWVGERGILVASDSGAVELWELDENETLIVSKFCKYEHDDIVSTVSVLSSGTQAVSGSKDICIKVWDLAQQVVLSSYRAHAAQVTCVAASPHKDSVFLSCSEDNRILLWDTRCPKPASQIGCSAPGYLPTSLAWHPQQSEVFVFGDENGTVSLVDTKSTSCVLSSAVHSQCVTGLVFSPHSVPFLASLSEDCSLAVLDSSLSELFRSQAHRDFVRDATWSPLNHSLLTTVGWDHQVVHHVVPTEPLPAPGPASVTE
Description: PRMT5 biochemical IC50 assay with SAM as cofactor. Conditions: PRMT5, SAM as cofactor; read-out: SAM IC50.

The target of assay [3] is T1, PRMT5. The experiment in a line: PRMT5 biochemical IC50 assay with no cofactor. Conditions: PRMT5, no cofactor; read-out: No Cofactor/rel IC50. The source says:
Table 1 indicates IC50 values (μM) against PRMT5 for exemplary compounds in the presence of SAM as cofactor, with no cofactor, and with MTA as cofactor, respectively (columns 4-6). […] Ki values can be calculated from the IC50 values as described in the Examples section. As detailed in the Examples section, for the assay performed in the presence of SAM, IC50=Ki×1.5 (Ki=IC50/1.5).

For assay [4], the target named is T1, PRMT5. The experiment in a line: PRMT5 biochemical IC50 assay with MTA as cofactor. Conditions: PRMT5, MTA as cofactor; read-out: MTA IC50.
The subject of assay [5] is HAP1 MTAP-deleted cell line. Description: SDMA in-cell western assay, HAP1 MTAP-deleted. The assay is classed as cell-based. The note with it: for IC50: Homo sapiens, HAP1, SDMA in-cell western, HAP1 MTAP-deleted, read-out: HAP 1 MTAP deleted IC50; for MTAP intact/deleted ratio: IC50 ratio HAP1 MTAP-intact / HAP1 MTAP-deleted, SDMA in-cell western. In outline: (§1)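 MTAP-null vs endogenous-MTAP HAP1 isogenic cells; in-cell western SDMA readout; IC50 per line.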

The subject of assay [6] is HAP1 MTAP-intact cell line. Description: SDMA in-cell western assay, HAP1 MTAP-intact. In kind it is cell-based. The note with it: Homo sapiens, HAP1, SDMA in-cell western, HAP1 MTAP-intact; read-out: MTAP HAP1 intact IC50. An outline of the steps:
as §1

Turning to `Cc1ccc([C@@H]2CC[C@@H](C)CN2C(=O)C(=O)Nc2cncc(C(N)=O)c2)cn1` (single isomer, unassigned) [Compound 654], the IC50 is 1000 to 10000 nM in assay [1]; 50 to 500 nM on PRMT5 [2]; 50 to 500 nM at PRMT5 [3]; < 50 nM on PRMT5 [4]; 100 to 1000 nM in assay [5]; > 1000 nM in assay [6]. The MTAP intact/deleted ratio result in assay [5] is on record as “A (an IC50 ratio greater than or equal to 10 fold)”.
On to `C[C@H]1CC[C@H](c2ccc(C(F)(F)F)c(Cl)c2)N(C(=O)C(=O)Nc2cncc(C(N)=O)c2)C1` (single isomer, unassigned) [Compound 655], for which the IC50 in assay [1] is 1000 to 10000 nM; on PRMT5 [2], < 50 nM; at PRMT5 [3] it was 50 to 500 nM; at PRMT5 [4] it was < 50 nM; in assay [5], 100 to 1000 nM; in assay [6], > 1000 nM. For the same compound, in assay [5], the MTAP intact/deleted ratio entry is “A (an IC50 ratio greater than or equal to 10 fold)”.
For `Cc1cc(NC(=O)C(=O)N2C[C@@H](C)CC[C@@H]2c2ccc3c(c2)C(=O)NC3)cnc1N` (single isomer, unassigned) [Compound 657], the IC50 in assay [1] is < 1000 nM; on PRMT5 [2] it was 50 to 500 nM; at PRMT5 [3], < 50 nM; on PRMT5 [4], < 50 nM; in assay [5], < 100 nM; in assay [6], 100 to 1000 nM. The MTAP intact/deleted ratio result in assay [5] is given as “A (an IC50 ratio greater than or equal to 10 fold)”.
Take `Cc1cc(NC(=O)C(=O)N2C[C@H](C)CC[C@H]2c2cc(F)cc(Cl)c2)cnc1N` (single isomer, unassigned) [Compound 659]: the IC50 is < 1000 nM in assay [1]; 50 to 500 nM at PRMT5 [2]; < 50 nM at PRMT5 [3]; < 50 nM on PRMT5 [4]; < 100 nM in assay [5]; 100 to 1000 nM in assay [6]. For the same compound, in assay [5], the MTAP intact/deleted ratio result is listed as “A (an IC50 ratio greater than or equal to 10 fold)”.
Turning to `Cc1cc(NC(=O)C(=O)N2C[C@@H](C)CC[C@@H]2c2cc(Cl)cc(Cl)c2)cnc1N` (single isomer, unassigned) [Compound 660], the IC50 in assay [1] is > 10000 nM; at PRMT5 [2], > 500 nM; at PRMT5 [3] it was > 500 nM; at PRMT5 [4], 50 to 500 nM; in assay [5], > 1000 nM; in assay [6], > 1000 nM. In addition, the MTAP intact/deleted ratio entry in assay [5] is listed as “B (an IC50 ratio greater than or equal to 3 fold but lower than 10 fold)”.
As to `C[C@@H]1CC[C@@H](c2cc(F)c3[nH]ncc3c2)N(C(=O)C(=O)Nc2cncc(C(N)=O)c2)C1` (single isomer, unassigned) [Compound 663], the IC50 was 1000 to 10000 nM in assay [1]; 50 to 500 nM on PRMT5 [2]; < 50 nM on PRMT5 [3]; < 50 nM at PRMT5 [4]; < 100 nM in assay [5]; > 1000 nM in assay [6]. The MTAP intact/deleted ratio result in assay [5] was “A (an IC50 ratio greater than or equal to 10 fold)”.
For `Cc1cc(NC(=O)C(=O)N2C[C@@H](C)CC[C@@H]2c2cc(Cl)cc(C(F)(F)F)c2)cnc1N` (single isomer, unassigned) [Compound 665], the IC50 was 1000 to 10000 nM in assay [1]; 50 to 500 nM at PRMT5 [2]; 50 to 500 nM on PRMT5 [3]; < 50 nM on PRMT5 [4]; 100 to 1000 nM in assay [5]; > 1000 nM in assay [6]. For the same compound, the MTAP intact/deleted ratio entry in assay [5] is listed as “A (an IC50 ratio greater than or equal to 10 fold)”.
Consider `COc1ncc(NC(=O)C(=O)N2C[C@H](C)CC[C@H]2c2ccc3c(c2)CCC(=O)N3)cc1C(N)=O` (single isomer, unassigned) [Compound 674], for which the IC50 was < 1000 nM in assay [1]; 50 to 500 nM on PRMT5 [2]; < 50 nM on PRMT5 [3]; < 50 nM on PRMT5 [4]; < 100 nM in assay [5]; 100 to 1000 nM in assay [6]. The MTAP intact/deleted ratio entry in assay [5] is given as “A (an IC50 ratio greater than or equal to 10 fold)”.
For the compound `Cc1cc(NC(=O)C(=O)N2C[C@H](C)CC[C@H]2c2ccc(-c3ccn[nH]3)cc2)cnc1N` (single isomer, unassigned) [Compound 675], the IC50 is > 10000 nM in assay [1]; > 500 nM on PRMT5 [2]; > 500 nM at PRMT5 [3]; 50 to 500 nM at PRMT5 [4]; > 1000 nM in assay [5]; > 1000 nM in assay [6]. Further, the MTAP intact/deleted ratio result in assay [5] is “B (an IC50 ratio greater than or equal to 3 fold but lower than 10 fold)”.
In the case of `Cc1cc(NC(=O)C(=O)N2C[C@@H](C)CC[C@@H]2c2ccc(-c3ccn[nH]3)cc2)cnc1N` (single isomer, unassigned) [Compound 676], the IC50 in assay [1] was < 1000 nM; at PRMT5 [2] it was 50 to 500 nM; on PRMT5 [3], < 50 nM; on PRMT5 [4] it was < 50 nM; in assay [5], < 100 nM; in assay [6], 100 to 1000 nM. Besides, in assay [5], the MTAP intact/deleted ratio result is reported as “B (an IC50 ratio greater than or equal to 3 fold but lower than 10 fold)”.
In the case of `Cc1cc(NC(=O)C(=O)N2C[C@H](C)CC[C@H]2c2cc(Cl)cc(Cl)c2)cnc1N` (single isomer, unassigned) [Compound 681], the IC50 in assay [1] is 1000 to 10000 nM; on PRMT5 [2], 50 to 500 nM; on PRMT5 [3], < 50 nM; at PRMT5 [4], < 50 nM; in assay [5] it was < 100 nM; in assay [6], > 1000 nM. Moreover, the MTAP intact/deleted ratio result in assay [5] is on record as “A (an IC50 ratio greater than or equal to 10 fold)”.
Turning to `C[C@H]1CN(C(=O)C(=O)Nc2cncc(C(N)=O)c2)[C@H](c2ccc(F)c(F)c2)CC1(F)F` (single isomer, unassigned) [Compound 683], the IC50 is 1000 to 10000 nM in assay [1]; 50 to 500 nM on PRMT5 [2]; 50 to 500 nM on PRMT5 [3]; < 50 nM at PRMT5 [4]; 100 to 1000 nM in assay [5]; > 1000 nM in assay [6]. In assay [5], the MTAP intact/deleted ratio result is listed as “A (an IC50 ratio greater than or equal to 10 fold)”.
For `Cc1cc(NC(=O)C(=O)N2C[C@H](C)C(F)(F)C[C@H]2c2ccc(F)c(F)c2)cnc1N` (single isomer, unassigned) [Compound 684], the IC50 in assay [1] is > 10000 nM; on PRMT5 [2] it was > 500 nM; on PRMT5 [3], > 500 nM; at PRMT5 [4], > 500 nM; in assay [5], > 1000 nM; in assay [6] it was > 1000 nM. Also, in assay [5], the MTAP intact/deleted ratio entry is recorded as “C (an IC50 ratio of less than 3 fold)”.
Turning to `CC(=O)Nc1ccc([C@H]2CC[C@H](C)CN2C(=O)C(=O)Nc2cncc(C(N)=O)c2)s1` (single isomer, unassigned) [Compound 686], the IC50 in assay [1] is > 10000 nM; on PRMT5 [2] it was > 500 nM; on PRMT5 [3] it was > 500 nM; on PRMT5 [4], > 500 nM; in assay [5], > 1000 nM; in assay [6] it was > 1000 nM. For the same compound, the MTAP intact/deleted ratio result in assay [5] is on record as “C (an IC50 ratio of less than 3 fold)”.
`Cc1ccc([C@@H]2CC[C@@H](C)CN2C(=O)C(=O)Nc2cnc(N)c(C)c2)cn1` (single isomer, unassigned) [Compound 687]: the IC50 in assay [1] is < 1000 nM; on PRMT5 [2], 50 to 500 nM; on PRMT5 [3], < 50 nM; at PRMT5 [4] it was < 50 nM; in assay [5], < 100 nM; in assay [6], 100 to 1000 nM. The MTAP intact/deleted ratio result in assay [5] is reported as “A (an IC50 ratio greater than or equal to 10 fold)”.
With `Cc1cc(NC(=O)C(=O)N2C[C@H](C)CC[C@H]2c2ccc(C(F)(F)F)c(Cl)c2)cnc1N` (single isomer, unassigned) [Compound 689], the IC50 is > 10000 nM in assay [1]; > 500 nM on PRMT5 [2]; > 500 nM at PRMT5 [3]; > 500 nM at PRMT5 [4]; > 1000 nM in assay [5]; > 1000 nM in assay [6]. Further, the MTAP intact/deleted ratio result in assay [5] is listed as “C (an IC50 ratio of less than 3 fold)”.
As to `Cc1nc2cc([C@@H]3CC[C@@H](C)CN3C(=O)C(=O)Nc3cncc(C(N)=O)c3)ccc2s1` (single isomer, unassigned) [Compound 693], the IC50 in assay [1] was < 1000 nM; at PRMT5 [2] it was 50 to 500 nM; at PRMT5 [3], < 50 nM; on PRMT5 [4], < 50 nM; in assay [5], < 100 nM; in assay [6], 100 to 1000 nM. In assay [5], the MTAP intact/deleted ratio entry is recorded as “A (an IC50 ratio greater than or equal to 10 fold)”.
`CCc1cc(NC(=O)C(=O)N2C[C@@H](C)CC[C@@H]2c2ccc3c(c2)CNC3=O)cnc1N` (single isomer, unassigned) [Compound 696, N-(6-amino-5-ethylpyridin-3-yl)-2-(5-methyl-2-(1-oxoisoindolin-5-yl)piperidin-1-yl)-2-oxoacetamide]: the IC50 in assay [1] was 1000 to 10000 nM; on PRMT5 [2] it was 50 to 500 nM; on PRMT5 [3] it was < 50 nM; on PRMT5 [4] it was < 50 nM; in assay [5] it was < 100 nM; in assay [6], > 1000 nM. In addition, the MTAP intact/deleted ratio result in assay [5] is listed as “A (an IC50 ratio greater than or equal to 10 fold)”.
